ChEMBL document CHEMBL1142873, “Synthesis, structural activity relationship and anti-tubercular activity of novel pyrazoline derivatives” (2007)
≈ marks a conversion by molar mass, not a printed value.

Tests used:
Format in all cases: functional
[1] = test system: Mycobacterium tuberculosis; assay: Antimycobacterial activity against Mycobacterium tuberculosis H37Rv at 0.0084 uM
[2] = test system: Mycobacterium tuberculosis; assay: Antimycobacterial activity against Mycobacterium tuberculosis H37Rv
[3] = test system: Mycobacterium tuberculosis; assay: Antimycobacterial activity against Mycobacterium tuberculosis H37Rv at 0.0135 uM
[4] = test system: Mycobacterium tuberculosis; assay: Antimycobacterial activity against Mycobacterium tuberculosis H37Rv at 0.0354 uM
[5] = test system: Mycobacterium tuberculosis; assay: Antimycobacterial activity against Mycobacterium tuberculosis H37Rv at 0.0143 uM
[6] = test system: Mycobacterium tuberculosis; assay: Antimycobacterial activity against Mycobacterium tuberculosis H37Rv at 0.0148 uM
[7] = test system: Mycobacterium tuberculosis; assay: Antimycobacterial activity against Mycobacterium tuberculosis H37Rv at 0.0403 uM
[8] = test system: Mycobacterium tuberculosis; assay: Antimycobacterial activity against Mycobacterium tuberculosis H37Rv at 0.1706 uM
[9] = test system: Mycobacterium tuberculosis; assay: Antimycobacterial activity against Mycobacterium tuberculosis H37Rv at 0.0034 uM
[10] = test system: Mycobacterium tuberculosis; assay: Antimycobacterial activity against Mycobacterium tuberculosis H37Rv at 0.0164 uM
[11] = test system: Mycobacterium tuberculosis; assay: Antimycobacterial activity against Mycobacterium tuberculosis H37Rv at 0.0202 uM
[12] = test system: Mycobacterium tuberculosis; assay: Antimycobacterial activity against Mycobacterium tuberculosis H37Rv at 0.0977 uM
[13] = test system: Mycobacterium tuberculosis; assay: Antimycobacterial activity against Mycobacterium tuberculosis H37Rv at 0.0138 uM
[14] = test system: Mycobacterium tuberculosis; assay: Antimycobacterial activity against Mycobacterium tuberculosis H37Rv at 0.0149 uM
[15] = test system: Mycobacterium tuberculosis; assay: Antimycobacterial activity against Mycobacterium tuberculosis H37Rv at 0.0140 uM
[16] = test system: Mycobacterium tuberculosis; assay: Antimycobacterial activity against Mycobacterium tuberculosis H37Rv at 0.1467 uM
[17] = test system: Mycobacterium tuberculosis; assay: Antimycobacterial activity against Mycobacterium tuberculosis H37Rv at 0.0150 uM
[18] = test system: Mycobacterium tuberculosis; assay: Antimycobacterial activity against Mycobacterium tuberculosis H37Rv at 0.0132 uM
[19] = test system: Mycobacterium tuberculosis; assay: Antimycobacterial activity against Mycobacterium tuberculosis H37Rv at 0.0092 uM
[20] = test system: Mycobacterium tuberculosis; assay: Antimycobacterial activity against Mycobacterium tuberculosis H37Rv at 0.2080 uM
[21] = test system: Mycobacterium tuberculosis; assay: Antimycobacterial activity against Mycobacterium tuberculosis H37Rv at 0.0201 uM
[22] = test system: Mycobacterium tuberculosis; assay: Antimycobacterial activity against Mycobacterium tuberculosis H37Rv at 0.0118 uM

COc1ccccc1NC(=S)N1N=C(c2ccc(O)c(C)c2)CC1c1cc(OC)c(OC)c(OC)c1 (stereo not given)
inhibition at 0.0084 µM [1]: 92%

COc1ccccc1NC(=S)N1N=C(c2ccc(O)c(C)c2)CC1c1ccc(N(C)C)cc1 (stereo not given)
MIC [2]: 6.25 µg/mL (≈ 13.6 µM) | inhibition at 0.0135 µM [3]: 28%

Cc1cc(C2=NN(C(=S)Nc3ccccc3C)C(c3ccccc3)C2)ccc1O (stereo not given)
inhibition at 0.0354 µM [4]: 29%

Cc1cc(C2=NN(C(=S)Nc3ccccc3C)C(c3ccc(Cl)cc3)C2)ccc1O (stereo not given)
inhibition at 0.0143 µM [5]: 44% | MIC [2]: 6.25 µg/mL (≈ 14.3 µM)

Cc1cc(C2=NN(C(=S)Nc3ccccc3C)C(c3ccc(F)cc3)C2)ccc1O (stereo not given)
MIC [2]: 6.25 µg/mL (≈ 14.9 µM) | inhibition at 0.0148 µM [6]: 32%

COc1ccc(C2CC(c3ccc(O)c(C)c3)=NN2C(=S)Nc2ccccc2C)cc1 (stereo not given)
inhibition at 0.0403 µM [7]: 6%

Cc1cc(C2=NN(C(=S)Nc3ccccc3C)C(Cc3ccco3)C2)ccc1O (stereo not given)
inhibition at 0.1706 µM [8]: 26%

COc1ccccc1NC(=S)N1N=C(c2ccc(O)c(C)c2)CC1c1c(Cl)cccc1Cl (stereo not given)
inhibition at 0.0034 µM [9]: 98% | MIC [2]: 1.66 µg/mL (≈ 3.41 µM)

COc1ccccc1NC(=S)N1N=C(c2ccc(O)c(C)c2)CC1c1ccc(F)cc1 (stereo not given)
inhibition at 0.0164 µM [10]: 16%

COc1ccccc1NC(=S)N1N=C(c2ccc(O)c(C)c2)CC1c1ccccc1Cl (stereo not given)
inhibition at 0.0202 µM [11]: 44%

COc1ccc(C2CC(c3ccc(O)c(C)c3)=NN2C(=S)Nc2ccccc2C)cc1OC (stereo not given)
inhibition at 0.0977 µM [12]: 72%

COc1ccccc1NC(=S)N1N=C(c2ccc(O)c(C)c2)CC1c1ccc(Cl)cc1 (stereo not given)
MIC [2]: 6.25 µg/mL (≈ 13.8 µM) | inhibition at 0.0138 µM [13]: 4%

COc1ccccc1NC(=S)N1N=C(c2ccc(O)c(C)c2)CC1c1ccccc1 (stereo not given)
MIC [2]: 6.25 µg/mL (≈ 15 µM) | inhibition at 0.0149 µM [14]: 6%

Cc1cc(C2=NN(C(=S)Nc3ccccc3C)C(c3ccc(N(C)C)cc3)C2)ccc1O (stereo not given)
inhibition at 0.014 µM [15]: 12% | MIC [2]: 6.25 µg/mL (≈ 14.1 µM)

COc1cc(C2CC(c3ccc(O)c(C)c3)=NN2C(=S)Nc2ccccc2C)cc(OC)c1OC (stereo not given)
inhibition at 0.1467 µM [16]: 44%

Cc1cc(C2=NN(C(=S)Nc3ccccc3C)C(c3ccccc3Cl)C2)ccc1O (stereo not given)
inhibition at 0.015 µM [17]: 33% | MIC [2]: 6.25 µg/mL (≈ 14.3 µM)

Cc1cc(C2=NN(C(=S)Nc3ccccc3C)C(c3cccc([N+](=O)[O-])c3)C2)ccc1O (stereo not given)
MIC [2]: 6.25 µg/mL (≈ 14 µM) | inhibition at 0.0132 µM [18]: 14%

COc1ccc(C2CC(c3ccc(O)c(C)c3)=NN2C(=S)Nc2ccccc2OC)cc1 (stereo not given)
inhibition at 0.0092 µM [19]: 94% | MIC [2]: 4.12 µg/mL (≈ 9.21 µM)

NNC(=O)c1ccncc1 [ISONIAZID]
MIC [2]: 0.025 µg/mL (≈ 0.182 µM)

Cc1cc(C2=NN(C(=S)Nc3ccccc3C)C(c3c(Cl)cccc3Cl)C2)ccc1O (stereo not given)
inhibition at 0.0143 µM [5]: 21% | MIC [2]: 6.25 µg/mL (≈ 13.3 µM)

COc1ccccc1NC(=S)N1N=C(c2ccc(O)c(C)c2)CC1c1cccc([N+](=O)[O-])c1 (stereo not given)
inhibition at 0.208 µM [20]: 8%

COc1ccccc1NC(=S)N1N=C(c2ccc(O)c(C)c2)CC1Cc1ccco1 (stereo not given)
inhibition at 0.0201 µM [21]: 18%

COc1ccccc1NC(=S)N1N=C(c2ccc(O)c(C)c2)CC1c1ccc(OC)c(OC)c1 (stereo not given)
MIC [2]: 5.67 µg/mL (≈ 11.9 µM) | inhibition at 0.0118 µM [22]: 88%
